How the values were obtained:
PLL = PLL (Photorhabdus laumondii subsp. laumondii, UniProt Q7N8J0); experiment: SPR, apparent KD on immobilized sugar; design: species or system Photorhabdus laumondii subsp. laumondii TT01; details: PLL binding to the immobilized sugar, 25 °C, read-out: KD(app)
Experimental: (§1) SPR experiments were carried out on BIAcore T200 or BIAcore S200 instruments (GE Healthcare, UK). Sugar moieties were immobilized on the chip surface using the standard procedures according to the manufacturer’s instructions. Measurements with immobilized MGMR were performed on the chip prepared previously (high-density chip) ([Fujdiarová et al. 2021]). Measurements with immobilized α-L-fucose were performed on the streptavidin chip (GE Healthcare, UK). Biotinylated α-L-fucose was immobilized on channel 2 to yield a final response of 29 RU, unmodified channel 1 was used as a control.
(§2) Measurements were performed in Tris buffer with the addition of 0.05% Tween 20 at a flow rate of 30 μl/min at 25 °C. […] 50 mM NaOH for 30 s (flow 30 μl/min) was used for chip regeneration. To determine KDs (app) towards MGMR, 2-fold dilution series of lectins was used (PLL: 0.048 – 50 μM, PLL4: 0.008 - 2 μM; PLL5: 1.9 – 500 nM). The data were evaluated with the BIAcore T200 or BIAcore S200 evaluation software using a steady state approach. To determine KD(app) towards α-L-fucose, 2-fold dilution series of lectins was used (PLL: 1.25 – 20 μM, PLL4: 0.39 – 12.5 μM; PLL5: 0.12 – 30 μM). The data were evaluated with the BIAcore T200 or BIAcore S200 evaluation software using a steady state approach (PLL5) or a single-cycle kinetics approach (PLL, PLL4). For SPR inhibition experiments on the MGMR channel, 250 nM PLL, 250 nM PLL4 or 62 nM PLL5, respectively, was used. Proteins of the given concentration were mixed with a concentration series of tested inhibitors (0.01 - 0.4 M). Proteins without an inhibitor were used as a control. The response of the lectin bound to the sugar surface at equilibrium was plotted against the concentration of inhibitor in order to determine IC50. The response in the appropriate blank channel was subtracted prior to all evaluations.

PLL4 [1] = molecular target: T1, PLL4 (Photorhabdus laumondii subsp. laumondii, UniProt Q7N8I6); experiment: SPR, apparent KD on immobilized sugar; design: species or system Photorhabdus laumondii subsp. laumondii TT01; details: PLL4 binding to the immobilized sugar, 25 °C, read-out: KD(app)
Experimental: as §1, §2

PLL5 = PLL5 (Photorhabdus laumondii subsp. laumondii, UniProt Q7N8I5); experiment: SPR, apparent KD on immobilized sugar; design: species or system Photorhabdus laumondii subsp. laumondii TT01; details: PLL5 binding to the immobilized sugar, 25 °C, read-out: KD(app)
Experimental: as §1, §2

PLL2 = molecular target: PLL2; design: method as in Faltinek et al. 2019; Fujdiarová et al. 2021; details: PLL2 binding to the immobilized sugar, SPR; ref Faltinek et al. 2019; Fujdiarová et al. 2021; read-out: KD(app); cited from earlier work
PLL3 = molecular target: PLL3; design: method as in Faltinek et al. 2019; Fujdiarová et al. 2021; details: PLL3 binding to the immobilized sugar, SPR; ref Faltinek et al. 2019; Fujdiarová et al. 2021; read-out: KD(app); cited from earlier work
PLL4 [2] = molecular target: T1, PLL4; experiment: Glycan microarray screening (634 saccharide ligands); assay type: binding, Photorhabdus laumondii subsp. laumondii TT01; details: DyLight488-labelled PLL4, 200 μg/mL
Experimental: Lectins were fluorescently labelled with DyLight 488 according to the manufacturer’s instructions and the unbound dye was extensively dialyzed out of the protein solution. The microarray chip (Semiotik LLC, Moscow, Russia, batch OSPS280715) containing 634 saccharide ligands, each in 6 replicates, was treated with PBS (137 mM NaCl, 2.7 mM KCl, 8 mM Na2HPO4, […], pH 7.4) with added 0.1% Tween-20 for 15 min. The labelled proteins (200 μg/mL) were then separately applied to the chip surface and incubated in a humidity chamber at 37 °C for 1 h. After the incubation, the unbound protein was washed out with PBS containing 0.05% Tween-20 and deionized water. The chip was dried by airflow and scanned using an InnoScan1100 AL (Innopsys, Carbonne, France) with a 488 nm laser. The data were analyzed with the software Mapix 8.2.2 and an online glycan chip converter (Semiotic, https://rakitko.shinyapps.io/semiotik).

T1 sequence (Q7N8I6 entry or part of it): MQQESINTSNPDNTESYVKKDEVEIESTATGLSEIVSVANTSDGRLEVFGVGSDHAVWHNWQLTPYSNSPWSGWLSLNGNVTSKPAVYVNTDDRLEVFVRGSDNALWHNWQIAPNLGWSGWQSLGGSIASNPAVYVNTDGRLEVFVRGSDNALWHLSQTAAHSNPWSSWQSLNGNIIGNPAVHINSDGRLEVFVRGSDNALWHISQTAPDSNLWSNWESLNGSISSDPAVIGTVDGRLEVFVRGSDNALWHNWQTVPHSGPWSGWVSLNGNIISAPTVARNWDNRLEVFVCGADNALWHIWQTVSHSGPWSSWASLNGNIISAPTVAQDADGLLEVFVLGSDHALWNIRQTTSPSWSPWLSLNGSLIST
Sequence of PLL (Q7N8J0 entry or part of it): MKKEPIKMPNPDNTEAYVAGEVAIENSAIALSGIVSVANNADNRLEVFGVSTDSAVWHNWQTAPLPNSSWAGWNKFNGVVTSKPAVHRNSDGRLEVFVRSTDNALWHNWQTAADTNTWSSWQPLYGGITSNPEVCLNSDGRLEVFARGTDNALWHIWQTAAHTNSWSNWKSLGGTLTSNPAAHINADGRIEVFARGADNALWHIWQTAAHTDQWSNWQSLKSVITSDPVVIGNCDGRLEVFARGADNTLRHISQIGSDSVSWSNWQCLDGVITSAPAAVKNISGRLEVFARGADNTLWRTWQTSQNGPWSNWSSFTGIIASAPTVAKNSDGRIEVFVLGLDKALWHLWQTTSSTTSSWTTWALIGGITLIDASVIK
Sequence of PLL5 (Q7N8I5 entry or part of it): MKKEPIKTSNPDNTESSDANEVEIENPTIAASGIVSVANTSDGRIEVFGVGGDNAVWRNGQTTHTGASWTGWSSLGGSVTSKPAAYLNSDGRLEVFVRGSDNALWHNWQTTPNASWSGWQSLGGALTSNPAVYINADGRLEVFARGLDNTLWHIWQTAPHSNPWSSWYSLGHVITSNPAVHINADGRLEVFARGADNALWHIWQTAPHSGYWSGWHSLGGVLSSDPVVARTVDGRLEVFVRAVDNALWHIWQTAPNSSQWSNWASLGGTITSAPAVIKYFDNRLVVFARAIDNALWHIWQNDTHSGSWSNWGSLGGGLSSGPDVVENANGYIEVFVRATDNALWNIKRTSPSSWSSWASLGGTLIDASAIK

Compound	Kd (PLL)	Kd (PLL4 [1])	Kd (PLL5)	Kd (PLL2)	Kd (PLL3)	glycan array binding (in words) (PLL4 [2])
COC[C@H]1O[C@@H](O[C@@H]2[C@@H](OC)[C@@H](OC)[C@H](O)O[C@H]2C)[C@H](O)[C@@H](OC)[C@@H]1O [MGMR, 3,6-O-Me2-D-Glcβ1-4(2,3-O-Me2)-L-Rhaα]	44 ± 4.6 µM	0.8 ± 0.06 µM	0.3 ± 0.03 µM	0.0061 ± 0.0002 µM	607 ± 46 µM	–
α-L-fucoside	8.5 ± 0.2 µM	4.3 ± 0.1 µM	64 ± 8.6 µM	117 ± 4.8 µM	322 ± 86 µM	recognized

From article PMC12203525, “The insight into the biology of five homologous lectins produced by the entomopathogenic bacterium and nematode symbiont Photorhabdus laumondii” (Glycobiology, 2025)
